{"source": "paper PMC7730205", "about": "“Different Sensitivity of Control and MICU1- and MICU2-Ablated Trypanosoma cruzi Mitochondrial Calcium Uniporter Complex to Ruthenium-Based Inhibitors” (International Journal of Molecular Sciences, 2020)", "key": {"[1]": {"test_system": "T. cruzi trypomastigotes", "assay": "In vitro infection assay of Vero cells by trypomastigotes", "format": "cell-based, Trypanosoma cruzi", "conditions": "30 min preincubation with 1 µM antimycin A; 4 h on Vero cells", "procedure": "(§1) We analyzed the growth rate of epimastigotes in LIT medium at different Ru265 concentrations (1 µM, 5 µM, and 10 µM). […] The presence of metabolic inhibitors affects attachment and invasion of T. cruzi trypomastigotes to mammalian cells since these are an active process which depends on the expenditure of parasite energy. Preincubation of trypomastigotes for 30 min with antimycin A, which blocks electron transport from cytochrome b to c1, decreased the ability of trypomastigotes to attach to glutaraldehyde-fixed cells (Figure 4b) and invade intact host cells (Figure 4c).\n(§2) Figure 4 Effect of Ru265 on Trypanosoma cruzi. (a) Effect of Ru265 on epimastigote growth. […] After 1 h of incubation at 37 °C, the cells were washed, and the number of attached trypomastigotes was counted. […] After 4 h of incubation at 37 °C, the cells were washed, and the number of intracellular parasites was counted. […] (f) Routine respiration (initial oxygen flux values), leak respiration after the addition of 0.5 µg/mL of oligomycin A, and electron transfer system (ETS) capacity after the sequential additions of FCCP (0.2 μM each) were measured for each condition. […] (g) Representative experiment showing mitochondrial Ca^2+ uptake by intact epimastigotes in relative fluorescence units (RFU). […] (h) Changes in fluorescence (before and after ionomycin addition) from three experiments like that shown in panel (g). […]"}, "[2]": {"test_system": "T. cruzi trypomastigotes", "assay": "Trypomastigote attachment assay to glutaraldehyde-fixed Vero cells", "format": "cell-based, Trypanosoma cruzi", "conditions": "30 min preincubation with 1 µM antimycin A; 1 h at 37 °C on fixed Vero cells", "procedure": "as §1, §2"}, "[3]": {"target": "T. cruzi mitochondrial Ca2+ uniporter complex, TcMICU1-KO cells (Trypanosoma cruzi, UniProt Q4DHJ5+Q4DL37+Q4DYG3)", "sequence (Q4DHJ5 entry or part of it)": "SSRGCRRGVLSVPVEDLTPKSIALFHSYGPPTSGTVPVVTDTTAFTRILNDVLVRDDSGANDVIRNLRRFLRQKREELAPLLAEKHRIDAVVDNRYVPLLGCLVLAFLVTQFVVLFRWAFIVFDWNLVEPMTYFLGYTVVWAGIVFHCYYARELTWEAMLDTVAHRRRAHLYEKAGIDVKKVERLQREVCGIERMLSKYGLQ", "sequence (Q4DL37 entry or part of it)": "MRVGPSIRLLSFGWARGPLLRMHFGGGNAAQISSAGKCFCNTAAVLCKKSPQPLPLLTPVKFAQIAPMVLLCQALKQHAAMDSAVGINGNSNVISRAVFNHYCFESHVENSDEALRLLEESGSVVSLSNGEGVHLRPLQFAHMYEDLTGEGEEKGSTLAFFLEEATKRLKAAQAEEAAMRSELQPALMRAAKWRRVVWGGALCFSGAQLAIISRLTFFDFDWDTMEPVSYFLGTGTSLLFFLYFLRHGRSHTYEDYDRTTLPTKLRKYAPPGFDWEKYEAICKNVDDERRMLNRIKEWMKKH", "sequence (Q4DYG3 entry or part of it)": "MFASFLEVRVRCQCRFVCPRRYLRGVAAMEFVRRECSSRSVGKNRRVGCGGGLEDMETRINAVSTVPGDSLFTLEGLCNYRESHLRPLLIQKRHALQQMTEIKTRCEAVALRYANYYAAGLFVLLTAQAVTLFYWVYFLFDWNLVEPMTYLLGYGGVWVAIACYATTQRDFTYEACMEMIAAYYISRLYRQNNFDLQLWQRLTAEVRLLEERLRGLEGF", "assay": "Ca2+ uptake by digitonin-permeabilized TcMICU1-KO epimastigotes (calcium green-5N)", "format": "cell-based", "conditions": "~30 µM Ca2+, 5 mM succinate, initial rate, read-out: IC50, inhibition of mitochondrial Ca2+ uptake", "excerpt": "(§3) We first tested the effect of different concentrations of inhibitors on Ca^2+ uptake, as measured by the change in fluorescence of calcium green 5-N, by digitonin-permeabilized control and TcMICU1-KO and TcMICU2-KO epimastigotes. These KO cells were obtained by the CRISPR/Cas9 method in previous work, and we used cells transfected with a scrambled sgRNA as control.\n(§4) Figure 2 Inhibition of mitochondrial Ca^2+ uptake by ruthenium-based compounds. Representative traces of Ca^2+ uptake by digitonin-permeabilized epimastigotes in control (a), TcMICU1-KO (b), and TcMICU2-KO (c) epimastigotes in the presence of different Ru360 concentrations. C, control cells; TcMICU1-KO cells; and TcMICU2-KO cells. The reaction was started after adding 50 μM digitonin (Dig) in the presence of ~30 μM CaCl2, 5 mM succinate, and 0.5 μM calcium green-5N, in the presence or absence of Ru360. Where indicated, 4 μM FCCP was added. (d–f) Dose–response inhibition of the initial rate of mitochondrial Ca^2+ uptake in control (C), TcMICU1-KO (1-KO), and TcMICU2-KO (2-KO) cells treated with RuRed (d), Ru360 (e) or Ru265 (f).\n(§5) When dose–response effects were measured in TcMICU1-KO and TcMICU2-KO cells we noticed that these cells were, in general, more sensitive to the inhibitors.\n(§6) Cells were collected by centrifugation at 1000× g for 7 min and washed twice with buffer A with glucose (BAG: 116 mM NaCl, 5.4 mM KCl, 0.8 mM MgSO4, 5.5 mM D-glucose, and 50 mM HEPES, pH 7.0). […] Mitochondrial Ca^2+ uptake was initiated by the addition of ~30 μM of free calcium, which was calculated using the software Maxchelator Calculator v1.2 (https://somapp.ucdmc.ucdavis.edu/pharmacology/bers/maxchelator/CaEGTA-NIST.htm). […] Fluorescence changes were monitored in an F-7000 fluorescence spectrophotometer (Hitachi, Dallas, TX, USA) with excitation at 506 nm and emission at 532 nm. […] Kd for Ca^2+ indicator probes in our conditions was determined, according to Chweih et al.. Uptake rate inhibitions were calculated as the first derivative of the absolute values of the slope by using the SLOPE Excel function for 200 points (300 to 500 s). […]"}, "[4]": {"target": "T. cruzi mitochondrial Ca2+ uniporter complex, TcMICU2-KO cells (Trypanosoma cruzi, UniProt Q4DHJ5+Q4DL37+Q4DYG3)", "sequence (Q4DL37 entry or part of it)": "as the sequence (Q4DL37 entry or part of it) above", "sequence (Q4DYG3 entry or part of it)": "as the sequence (Q4DYG3 entry or part of it) above", "sequence (Q4DHJ5 entry or part of it)": "as the sequence (Q4DHJ5 entry or part of it) above", "assay": "Ca2+ uptake by digitonin-permeabilized TcMICU2-KO epimastigotes (calcium green-5N)", "format": "cell-based", "conditions": "~30 µM Ca2+, 5 mM succinate, initial rate, read-out: IC50, inhibition of mitochondrial Ca2+ uptake", "excerpt": "as §3, §4, §5, §6"}, "[5]": {"target": "T. cruzi mitochondrial Ca2+ uniporter complex (MCUC), control cells (Trypanosoma cruzi, UniProt Q4DHJ5+Q4DL37+Q4DYG3)", "sequence (Q4DL37 entry or part of it)": "as the sequence (Q4DL37 entry or part of it) above", "sequence (Q4DHJ5 entry or part of it)": "as the sequence (Q4DHJ5 entry or part of it) above", "sequence (Q4DYG3 entry or part of it)": "as the sequence (Q4DYG3 entry or part of it) above", "sequence (Q4E667 entry or part of it, further chain)": "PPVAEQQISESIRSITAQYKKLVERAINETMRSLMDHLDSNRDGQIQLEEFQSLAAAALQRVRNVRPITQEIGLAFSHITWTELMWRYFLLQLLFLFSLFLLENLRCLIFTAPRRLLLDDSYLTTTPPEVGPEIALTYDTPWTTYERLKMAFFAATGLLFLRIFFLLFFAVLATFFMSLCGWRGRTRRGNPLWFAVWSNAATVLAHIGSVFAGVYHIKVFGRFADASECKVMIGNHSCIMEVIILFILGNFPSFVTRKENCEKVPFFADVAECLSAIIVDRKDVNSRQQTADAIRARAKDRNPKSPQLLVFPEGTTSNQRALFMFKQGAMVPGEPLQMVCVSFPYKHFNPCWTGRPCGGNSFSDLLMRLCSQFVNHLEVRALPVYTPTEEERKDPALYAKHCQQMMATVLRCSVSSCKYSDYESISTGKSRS", "assay": "Ca2+ uptake by digitonin-permeabilized control epimastigotes (calcium green-5N)", "format": "cell-based", "conditions": "control (scrambled sgRNA) epimastigotes, ~30 µM Ca2+, 5 mM succinate, initial rate, read-out: IC50, inhibition of mitochondrial Ca2+ uptake", "excerpt": "as §3\nAs is shown in Figure 2a, extramitochondrial Ca^2+ was sequestered in the mitochondria of control cells and released by the uncoupler FCCP.\nas §4, §6"}, "[6]": {"test_system": "T. cruzi epimastigotes (control, TcMICU1-KO, TcMICU2-KO)", "assay": "Mitochondrial membrane potential of digitonin-permeabilized epimastigotes (safranine O)", "format": "cell-based, Trypanosoma cruzi", "conditions": "TcMICU1-KO or TcMICU2-KO cells, succinate", "excerpt": "To determine whether the defect in mitochondrial Ca^2+ uptake in the presence of inhibitors was not secondary to mitochondrial membrane depolarization, we measured the mitochondrial membrane potential (Δψm) of digitonin-permeabilized epimastigotes using safranine O in the presence of succinate as mitochondrial substrate.\nFigure 3 Effect of inhibitors on the mitochondrial membrane potential of epimastigotes. Changes in mitochondrial membrane potential (Δψm) of digitonin-permeabilized epimastigotes as detected by changes in safranine O fluorescence in control (a), TcMICU1-KO (b), and TcMICU2-KO (c) epimastigotes in the absence or presence of inhibitors. Cells (5 × 10^7) were added to the reaction buffer (2 mL) containing 0.2% BSA, 5 mM succinate, 50 μM EGTA and 5 μM safranine O. The reaction was started with 50 μM digitonin (DIG) in the presence or absence of the inhibitor, and 250 μM ADP, 1.5 μM carboxyatractyloside (CAT), 50 μM CaCl2 (Ca^2+), 200 μM EGTA, and 4 μM FCCP were added when indicated. A decrease in fluorescence after permeabilization with digitonin indicated the accumulation of the dye in energized mitochondria. The addition of ADP produced a small dissipation of membrane potential, indicating ADP phosphorylation. Δψm returned to its initial level after the addition of the adenine nucleotide translocator inhibitor CAT. The addition of FCCP collapsed the membrane potential. (d) Changes in safranine O fluorescence after digitonin addition (between 30 and 60 s) in control (C), TcMICU1-KO and TcMICU2-KO epimastigotes. […] Changes in safranine O fluorescence in control (C) (e), TcMICU1-KO (1-KO) (f), and TcMICU2-KO (2-KO) (g) epimastigotes after addition of ADP from three experiments like that shown in panels (a–c).\nEstimation of mitochondrial membrane potential in situ was done spectrofluorometrically using the indicator dye safranine O, as described previously. […] Fluorescence changes were monitored using the Hitachi F-7000 spectrofluorometer (excitation of 495 nm and emission of 586 nm)."}, "[7]": {"test_system": "mammalian mitochondria", "conditions": "cited from earlier work"}}, "data": [{"molecule": "CCCCCC[C@H]1C(=O)O[C@H](C)[C@H](NC(=O)c2cccc(NC=O)c2O)C(=O)O[C@@H](C)[C@@H]1OC(=O)CC(C)C", "note": "[antimycin A]", "values": [{"measurement": "Ability of trypomastigotes to invade intact host cells", "setting": "[1]", "value": "decreased"}, {"measurement": "Ability of trypomastigotes to attach to glutaraldehyde-fixed cells", "setting": "[2]", "value": "decreased"}]}, {"molecule": "Ru360", "values": [{"measurement": "IC50", "setting": "[3]", "value": "46.7 ± 2.7", "unit": "nM"}, {"measurement": "IC50", "setting": "[4]", "value": "63.6 ± 6.9", "unit": "nM"}, {"measurement": "IC50", "setting": "[5]", "value": "186 ± 15.2", "unit": "nM"}, {"measurement": "Effect on mitochondrial membrane potential (Δψm) and response to ADP", "setting": "[6]", "value": "did not significantly affect"}]}, {"molecule": "N.N.N.N.N.N.N.N.N.N.N.N.N.N.[Cl-].[Cl-].[Cl-].[Cl-].[Cl-].[Cl-].[O-2].[O-2].[Ru+3].[Ru+3].[Ru+4]", "note": "[RuRed, ruthenium red]", "values": [{"measurement": "IC50", "setting": "[3]", "value": "148 ± 21.7", "unit": "nM"}, {"measurement": "Effective concentration range in mammalian mitochondria", "setting": "[7]", "value": "effective in the submicromolar range"}, {"measurement": "IC50", "setting": "[4]", "value": "11.9 ± 1.4", "unit": "nM"}, {"measurement": "IC50", "setting": "[5]", "value": "117 ± 16.9", "unit": "nM"}, {"measurement": "Effect on mitochondrial membrane potential (Δψm) and response to ADP", "setting": "[6]", "value": "did not significantly affect"}]}, {"molecule": "N.N.N.N.N.N.N.N.[Cl][Ru+3].[NH]=[Ru][Cl]", "note": "[Ru265]", "values": [{"measurement": "IC50", "setting": "[3]", "value": "12.1 ± 2.3", "unit": "nM"}, {"measurement": "IC50", "setting": "[4]", "value": "14.1 ± 1.3", "unit": "nM"}, {"measurement": "IC50", "setting": "[5]", "value": "26.3 ± 2", "unit": "nM"}]}]}
